We go through 7 compounds from patent US20240251787A1, “AGROCHEMICAL COMPOSITION, AGROCHEMICAL FORMULATION, USE OF A DIOXABICYCLOALKANE DERIVATIVE, AND, METHOD FOR THE TREATMENT AND/OR PREVENTION OF DISEASES OR PESTS IN A PLANT OR PLANT SEED” (Oxiteno S.A. Indústria e Comércio, priority 2021, published 2024).

The conditions of series [1]: 1-octanol/water; cited from earlier work.
A short description of series [2]: Crystallization test of azoxystrobin solution upon dilution in water. Type of series: physicochemical. Particulars: azoxystrobin solution (100 g/L) in the solvent diluted 1:20 in water. An excerpt: The active ingredient azoxystrobin was chosen to carry out an additional test of crystallization of the active ingredient upon dilution in water. […] Among the solvents chosen for evaluation are the solvents dihydrolevoglucosenone, γ-butyrolactone, N-methylpyrrolidone, and triacetin.

Series [3] concerns Euphorbia pulcherrima (Euphorbiaceae), Poinsettia.
Excerpt: Phytotoxicity data were generated in tests on Poinsettia (red leaves plant), since this leaf is sensitive to damage caused by chemical agents, which makes it possible to verify and compare the tested solvents.
For series [4] the following is noted: safety data sheet class; cited from earlier work.
A short description of series [5]: Solvency: maximum amount of active ingredient solubilized per liter of solvent. Particulars: for Solvency in N-methylpyrrolidone (NMP): solvent N-methylpyrrolidone (NMP); for Solvency in γ-butyrolactone: solvent γ-butyrolactone.
Description: The above compositions were prepared at a temperature of about 50° ° C. stirred with a vortex mixer until visual inspection indicated the absence of solids, confirming solubilization of the active ingredient in the solvent.
The mark [6] stands for this setting: Euphorbia pulcherrima (Poinsettia), in vivo, 24 h.

Read-outs that look alike come from different tables or passages of the source.

Consider `CN1CCCC1=O` [NMP, N-methylpyrrolidone], for which the logP in series [1] is given as −0.40. Besides, the Observation by dilution entry in series [2] is “Immediate”. In addition, the “Phytotoxicity (damage %)” value in series [3] (setting [6]) is on record as 42%. Further, in series [4], the Eye irritation is on record as 2A, the Reproductive system tox. is listed as 1B, the Respiratory tox. is 3 and the Skin irritation is on record as 2.

Take `CC(=O)OCC(COC(C)=O)OC(C)=O` [Triacetin]: the Observation by dilution result in series [2] is “Two-phase”.

Turning to `CS(=O)(=O)c1ccc(C(=O)C2C(=O)CCCC2=O)c([N+](=O)[O-])c1` [Mesotrione], in series [5], the “Solvency in N-methylpyrrolidone (NMP)” value is listed as 400 g/L and the “Solvency in γ-butyrolactone” value was found to be 300 g/L.

Consider `O=C1CCC2COC1O2` (centres unmarked) [dihydrolevoglucosenone, 6,8-dioxabicyclo[3.2.1]octan-4-one], for which, in series [1], the logP is given as −1.52. Besides, in series [2], the Observation by dilution result is reported as “Two-phase”. In addition, the “Phytotoxicity (damage %)” value in series [3] (setting [6]) came to 6%. Also, the Eye irritation in series [4] is given as 2A.

As to `CO/C=C(/C(=O)OC)c1ccccc1Oc1cc(Oc2ccccc2C#N)ncn1` [Azoxystrobin], in series [5], the “Solvency in N-methylpyrrolidone (NMP)” value is 900 g/L and the “Solvency in γ-butyrolactone” value worked out at 800 g/L.

Take `OC(Cc1ccccc1Cl)(Cn1nc[nH]c1=S)C1(Cl)CC1` (centres unmarked) [Prothioconazole]: in series [5], the “Solvency in N-methylpyrrolidone (NMP)” value was determined as 1100 g/L and the “Solvency in γ-butyrolactone” value worked out at 900 g/L.

Consider `O=C1CCCO1` [γ-butyrolactone], for which, in series [2], the Observation by dilution result is listed as “Immediate”. The “Phytotoxicity (damage %)” value in series [3] (damage observed in each Poinsettia leaf after 24 h of exposure) was determined as 27%. Moreover, in series [4], the Aquatic environment tox. is on record as 3, the “Central nervous system tox.” value is 3 and the Eye irritation is reported as 1.

As usually defined, the logP is a log measure of how a compound divides between an organic and an aqueous phase.
